From the supplement of paper PMC10307832

How the values were obtained:
Assay in all cases: relative viability (nuclei count vs DMSO), 5 days (fraction); higher = more cells survive
LCLC-97TM1 = test system: LCLC-97TM1
How it was run: (§1)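 A single step with final 0.05% Triton X-100, 1% formaldehyde and 1 ug/ml Hoechst fixed the cells and stained nuclei 5 days after treatment. Lung cancer cell lines in 1536-well plates had been treated by pin tool the day after seeding with one drug alone or a fixed anchor-drug dose plus five library-drug doses (not always all listed) in √10 steps, and nuclei were counted on 4× images. Relative viability is the ratio of nuclei in treated wells to nuclei in vehicle wells, taken as the median of duplicate plates.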

NCI-H1915 = test system: NCI-H1915
How it was run: as §1

SW 1573 = test system: SW 1573
How it was run: as §1

NCI-H1993 = test system: NCI-H1993
How it was run: as §1

SK-LU-1 = test system: SK-LU-1
How it was run: as §1

HOP-62 = test system: HOP-62
How it was run: as §1

NCI-H2347 = test system: NCI-H2347
How it was run: as §1

LXF-289 = test system: LXF-289
How it was run: as §1

PC-14 = test system: PC-14
How it was run: as §1

NCI-H2009 = test system: NCI-H2009
How it was run: as §1

EMC-BAC-2 = test system: EMC-BAC-2
How it was run: as §1

NCI-H661 = test system: NCI-H661
How it was run: as §1

NCI-H322M = test system: NCI-H322M
How it was run: as §1

NCI-H2085 = test system: NCI-H2085
How it was run: as §1

H3255 = test system: H3255
How it was run: as §1

NCI-H2126 = test system: NCI-H2126
How it was run: as §1

NCI-H727 = test system: NCI-H727
How it was run: as §1

NCI-H1563 = test system: NCI-H1563
How it was run: as §1

NCI-H647 = test system: NCI-H647
How it was run: as §1

BEN = test system: BEN
How it was run: as §1

NCI-H2023 = test system: NCI-H2023
How it was run: as §1

NCI-H358 = test system: NCI-H358
How it was run: as §1

Work on `COc1cc(N2CCC(C(N)=O)CC2)ccc1Nc1nc(N)c(Cl)c(Nc2ccccc2S(=O)(=O)C(C)C)n1` [HG-5-88-01] + C[C@]1(O)C[C@@H](c2nc(-c3ccc4ccc(-c5ccccc5)nc4c3)c3c(N)nccn32)C1 [Linsitinib] (partner 1 µM) yielded a relative viability (LCLC-97TM1; first compound 0.04 µM) of 0.183, a relative viability (LCLC-97TM1; first compound 0.1265 µM) of 0.201 and a relative viability (LCLC-97TM1; first compound 0.4 µM) of 0.18. For the same molecule, the relative viability (LCLC-97TM1; first compound 1.265 µM) was 0.152, the relative viability (LCLC-97TM1; first compound 4 µM) was 0.158 and the relative viability (NCI-H1915; first compound 0.04 µM) was 1.09. The relative viability (NCI-H1915; first compound 0.1265 µM) was 1.11, the relative viability (NCI-H1915; first compound 0.4 µM) was 1.14 and the relative viability (NCI-H1915; first compound 1.265 µM) was 1.15. For the same molecule, the relative viability (NCI-H1915; first compound 4 µM) was 0.674, the relative viability (SW 1573; first compound 0.04 µM) was 0.796 and the relative viability (SW 1573; first compound 0.1265 µM) was 0.961. For the same molecule, the relative viability (SW 1573; first compound 0.4 µM) was 0.855, the relative viability (SW 1573; first compound 1.265 µM) was 0.704 and the relative viability (SW 1573; first compound 4 µM) was 0.83. The relative viability (NCI-H1993; first compound 0.04 µM) was 0.807, the relative viability (NCI-H1993; first compound 0.1265 µM) was 0.697 and the relative viability (NCI-H1993; first compound 0.4 µM) was 0.732. The relative viability (NCI-H1993; first compound 1.265 µM) was 0.61, the relative viability (NCI-H1993; first compound 4 µM) was 0.722 and the relative viability (SK-LU-1; first compound 0.04 µM) was 1.02. The relative viability (SK-LU-1; first compound 0.1265 µM) was 1, the relative viability (SK-LU-1; first compound 0.4 µM) was 1.09 and the relative viability (SK-LU-1; first compound 1.265 µM) was 1.21. It also gave a relative viability (SK-LU-1; first compound 4 µM) of 0.996, a relative viability (HOP-62; first compound 0.04 µM) of 0.978 and a relative viability (HOP-62; first compound 0.1265 µM) of 1.04. For the same molecule, the relative viability (HOP-62; first compound 0.4 µM) was 0.821, the relative viability (HOP-62; first compound 1.265 µM) was 0.938 and the relative viability (HOP-62; first compound 4 µM) was 1.23. The relative viability (NCI-H2347; first compound 0.04 µM) was 0.988, the relative viability (NCI-H2347; first compound 0.1265 µM) was 0.933 and the relative viability (NCI-H2347; first compound 0.4 µM) was 1.1. For the same molecule, the relative viability (NCI-H2347; first compound 1.265 µM) was 0.959, the relative viability (NCI-H2347; first compound 4 µM) was 1.03 and the relative viability (LXF-289; first compound 0.04 µM) was 0.94. The relative viability (LXF-289; first compound 0.1265 µM) was 1, the relative viability (LXF-289; first compound 0.4 µM) was 0.961 and the relative viability (LXF-289; first compound 1.265 µM) was 0.973. The relative viability (LXF-289; first compound 4 µM) was 1.04, the relative viability (PC-14; first compound 0.04 µM) was 0.977 and the relative viability (PC-14; first compound 0.1265 µM) was 1.02. The relative viability (PC-14; first compound 0.4 µM) was 0.955, the relative viability (PC-14; first compound 1.265 µM) was 0.917 and the relative viability (PC-14; first compound 4 µM) was 0.331. The relative viability (NCI-H2009; first compound 0.04 µM) was 1.23, the relative viability (NCI-H2009; first compound 0.1265 µM) was 1.14 and the relative viability (NCI-H2009; first compound 0.4 µM) was 1.23. The relative viability (NCI-H2009; first compound 1.265 µM) was 1.12, the relative viability (NCI-H2009; first compound 4 µM) was 1.17 and the relative viability (EMC-BAC-2; first compound 0.04 µM) was 0.79. The relative viability (EMC-BAC-2; first compound 0.1265 µM) was 0.849, the relative viability (EMC-BAC-2; first compound 0.4 µM) was 0.771 and the relative viability (EMC-BAC-2; first compound 1.265 µM) was 0.758. For the same molecule, the relative viability (EMC-BAC-2; first compound 4 µM) was 0.851, the relative viability (NCI-H661; first compound 0.04 µM) was 0.586 and the relative viability (NCI-H661; first compound 0.1265 µM) was 0.624. It also gave a relative viability (NCI-H661; first compound 0.4 µM) of 0.682, a relative viability (NCI-H661; first compound 4 µM) of 0.669 and a relative viability (NCI-H322M; first compound 0.04 µM) of 0.892. For the same molecule, the relative viability (NCI-H322M; first compound 0.1265 µM) was 0.922, the relative viability (NCI-H322M; first compound 0.4 µM) was 1.01 and the relative viability (NCI-H322M; first compound 1.265 µM) was 0.657. For the same molecule, the relative viability (NCI-H322M; first compound 4 µM) was 0.858, the relative viability (NCI-H2085; first compound 0.04 µM) was 0.913 and the relative viability (NCI-H2085; first compound 0.1265 µM) was 0.924. It also gave a relative viability (NCI-H2085; first compound 0.4 µM) of 0.809, a relative viability (NCI-H2085; first compound 1.265 µM) of 0.748 and a relative viability (NCI-H2085; first compound 4 µM) of 0.92. For the same molecule, the relative viability (H3255; first compound 0.04 µM) was 1.03, the relative viability (H3255; first compound 0.1265 µM) was 0.913 and the relative viability (H3255; first compound 0.4 µM) was 0.939. It also gave a relative viability (H3255; first compound 4 µM) of 0.734, a relative viability (NCI-H2126; first compound 0.04 µM) of 0.641 and a relative viability (NCI-H2126; first compound 0.1265 µM) of 0.76. The relative viability (NCI-H2126; first compound 0.4 µM) was 0.721, the relative viability (NCI-H2126; first compound 1.265 µM) was 0.69 and the relative viability (NCI-H2126; first compound 4 µM) was 0.716. The relative viability (NCI-H727; first compound 0.04 µM) was 0.337, the relative viability (NCI-H727; first compound 0.1265 µM) was 0.336 and the relative viability (NCI-H727; first compound 0.4 µM) was 0.179. It also gave a relative viability (NCI-H727; first compound 1.265 µM) of 0.221, a relative viability (NCI-H727; first compound 4 µM) of 0.324 and a relative viability (NCI-H1563; first compound 0.04 µM) of 1.1. For the same molecule, the relative viability (NCI-H1563; first compound 0.1265 µM) was 1.17, the relative viability (NCI-H1563; first compound 0.4 µM) was 1.23 and the relative viability (NCI-H1563; first compound 1.265 µM) was 1.21. For the same molecule, the relative viability (NCI-H1563; first compound 4 µM) was 1.21, the relative viability (NCI-H647; first compound 0.04 µM) was 1.21 and the relative viability (NCI-H647; first compound 0.1265 µM) was 1.38. It also gave a relative viability (NCI-H647; first compound 1.265 µM) of 1.08, a relative viability (NCI-H647; first compound 4 µM) of 1.12 and a relative viability (BEN; first compound 0.04 µM) of 0.817. It also gave a relative viability (BEN; first compound 0.1265 µM) of 0.968, a relative viability (BEN; first compound 0.4 µM) of 0.899 and a relative viability (BEN; first compound 1.265 µM) of 0.767. It also gave a relative viability (BEN; first compound 4 µM) of 1.17, a relative viability (NCI-H2023; first compound 0.04 µM) of 0.695 and a relative viability (NCI-H2023; first compound 0.1265 µM) of 0.683. It also gave a relative viability (NCI-H2023; first compound 0.4 µM) of 0.619, a relative viability (NCI-H2023; first compound 1.265 µM) of 0.539 and a relative viability (NCI-H2023; first compound 4 µM) of 0.762. The relative viability (NCI-H358; first compound 0.04 µM) was 0.696, the relative viability (NCI-H358; first compound 0.1265 µM) was 0.707 and the relative viability (NCI-H358; first compound 0.4 µM) was 0.625. It also gave a relative viability (NCI-H358; first compound 1.265 µM) of 0.484 and a relative viability (NCI-H358; first compound 4 µM) of 0.387.
